Like-named read-outs stand apart in the source and are kept apart here.

A short description of data set [1]: Steady-state flux of progesterone across the epidermis versus volume fraction of ethanol in donor (FIG. 1). Format: in vitro ADME. From the text:
(§1) This Example is based on FIGS. 1-3.

Data set [2] in a line: Flux of progesterone across membrane and adhesive on human epidermis (FIG. 3). To be noted: 1 mil polyurethane membrane and silicone adhesive. The format is in vitro ADME.
Text: FIG. 3 is a graph of the flux of progesterone across a membrane and adhesive on human epidermis versus volume fraction of ethanol in the aqueous ethanol reservoir.
as §1

The nature of data set [3]: Charge state in aqueous solutions. The format is physicochemical.
A short description of data set [4]: Fluxes of nitroglycerin and ethanol through 32.8% vinyl acetate membrane plus skin with and without silicone face adhesive (Table 3). From the text: (§2) In current-marketed transdermal devices, the adhesive is typically between 1.5 and 3 mils thick and is on the face of the device.
Data set [5] is described as follows: Fluxes through ethylene vinyl acetate membranes (Table 1). To be noted: for Nitroglycerin flux through ethylene vinyl acetate membrane: ethanol:water (7:3) reservoir saturated with nitroglycerin on lactose; for ^3 H2 O flux through ethylene vinyl acetate membrane: ethanol:water (7:3) reservoir. Here is the method:
(§3) For convenience purposes, this is measured by placing a portion of membrane or membrane/adhesive laminate in a diffusion cell and filling one side with a 70%, aqueous ethanol. After a period of time the amounts of water and alkanol that have crossed the membrane are determined. Typically, when measuring ethanol flux, the receiver side is water. When measuring water flux, either a) the donor side is ^3 H2 O and the receiver side is water or b) the donor side is water and the receiver side is air.

Data set [6] can be described thus: Fluxes of nitroglycerin through skin and ethylene vinyl acetate membranes (Table 2). The format is in vitro ADME.
Data set [7] is described as follows: Flux of nitroglycerin and ethanol through epidermis, with and without membrane (FIGS. 5 and 6). To be noted: FIG. 6. From the text: FIG. 5 is a graph of the flux of nitroglycerin across epidermis versus the volume fraction of ethanol in the aqueous ethanol reservoir.
FIG. 6 is a graph of the flux of nitroglycerin versus the flux of ethanol for two different membrane thicknesses and epidermis as compared to epidermis alone.
These Examples are based on FIGS. 5 and 6. A 0.65 volume fraction of ethanol is used in the reservoir. The systems have a 10 cm^2 surface area, and use a polyester impermeable backing, a polyurethane membrane, and a silicone adhesive. […] Above a volume fraction of 0.8 ethanol, a safety hazard or transportation law infraction may be incurred with nitroglycerin unless the nitroglycerin is kept below 10%.

The conditions of data set [8]: cited from earlier work.
For data set [9] the following is noted: commercial estradiol system, cited from earlier work.
The conditions of data set [10]: cited from earlier work. This is another data set of the same source.
Data set [11] can be described thus: Water and ethanol flux through the combined membrane adhesive laminate. To be noted: 32.8% vinyl acetate membrane plus 2 mil silicone face adhesive. Here is the method: as §3, §2
For data set [12] the following is noted: cited from earlier work. This is another data set of the same source.
For data set [13] the following is noted: cited from earlier work. This is another data set of the same source.
Data set [14] is classed as in vitro ADME, human. To be noted: 0.7 volume fraction of ethanol; active agent at saturation. From the text:
FIG. 4 is a graph of the flux of (±) trans-1,3,4,4a,5,10b-hexahydro-4-propyl-2H-[1]benzopyrano[3,4-b]pyridin-9-ol monohydrochloride, an ionizable drug which is a dopamine autoreceptor agonist, across human epidermis from ethanol: water (7:3) versus pH of that aqueous ethanol solution. In aqueous solutions, the drug is […] charged below pH 6.5.
This Example is based on FIG. 4 in which the dopamine autoreceptor agonist, (±)trans-1,3,4,4a,5,10b-hexahydro-4-propyl-2H-[1]benzopyrano[3,4-b]pyridin-9-ol, an ionizable drug, permeates skin. For this drug the optimal pH of an ethanol:water donor which is 0.7 volume fraction of ethanol is in the range of 4. A microporous membrane such as a microporous polypropylene and a silicone adhesive may be used. The active agent is present at saturation.

How the values of data set [15] were obtained: FIG. 2 is a graph of the steady-state flux of ethanol across human epidermis versus the volume fraction of ethanol in the donor solution.
This Example is based on FIGS. 1-3. […] The reservoir contains 1.7 ml of ethanol, 0.3 ml water, 200 mg of progesterone as the drug, and 2% Klucel as a gelling agent. […] A volume fraction of 0.85 is chosen to allow for the back flux of water and depletion of ethanol during the use of the system.

Take `CC(=O)[C@H]1CC[C@H]2[C@@H]3CCC4=CC(=O)CC[C@]4(C)[C@H]3CC[C@]12C` [progesterone]: in data set [1] (compared to both neat water and neat ethanol), the “Progesterone flux across epidermis from optimized aqueous ethanol reservoir” value is “large increase in the flux”. Also, the “Volume fraction of ethanol at which progesterone flux through skin is optimized” value in [1] (not including the drug or gelling agent) is 0.4-0.85 volume fraction of ethanol. Also, in [2], the “Volume fraction of ethanol at optimum of skin permeation with membrane and adhesive” value is ~0.7 volume fraction of ethanol.
In the case of `CCCN1CCC[C@@H]2c3cc(O)ccc3OC[C@H]21.Cl` (racemic) [(±) trans-1,3,4,4a,5,10b-hexahydro-4-propyl-2H-[1]benzopyrano[3,4-b]pyridin-9-ol monohydrochloride], in data set [3], the “pH below which the drug is negatively charged in aqueous solutions” value is recorded as under 6.5.
Regarding `O=[N+]([O-])OCC(CO[N+](=O)[O-])O[N+](=O)[O-]` [Nitroglycerin, nitroglycerin], the “Improvement of nitroglycerin flux by optimization of adhesive and membrane layers” value in [4] (32.8% vinyl acetate membrane, peripheral versus 2 mil silicone face adhesive) is “more than a factor of two”. The Nitroglycerin flux in [4] (Membrane alone and skin, 32.8% vinyl acetate membrane, ethanol:water (85:15) reservoir) was determined as 82 ± 26 mcg/cm^2 /hr; in data set [4] (Membrane and adhesive (2 mil silicone face adhesive) and skin, 32.8% vinyl acetate, ethanol:water (85:15) reservoir), 37 ± 10 mcg/cm^2 /hr; in [4] (Skin alone from ethanol:water (70:30)), 85 ± 15 mcg/cm^2 /hr; in data set [4] (Skin alone without ethanol in donor), 15 ± 7 mcg/cm^2 /hr. In addition, the “Nitroglycerin flux through ethylene vinyl acetate membrane” value in data set [5] (vinyl acetate content 9%) was found to be 2.4 ± 0.3 mg/h; in [5] (vinyl acetate content 18%) it was 5 ± 0.7 mg/h; in [5] (vinyl acetate content 28%), 10 ± 0.5 mg/h; in data set [5] (vinyl acetate content 40%), 21 ± 0.3 mg/h. In addition, the “Rate control of nitroglycerin permeation” value in [6] (1 mil ethylene/vinyl acetate membranes) was “the skin controls the rate of nitroglycerin permeation”. In data set [6] (membranes of higher vinyl acetate content), the “Improvement of nitroglycerin flux through skin over the best of previously disclosed systems” value was at most 2 factor. The “Flux of nitroglycerin through skin and ethylene vinyl acetate membrane” value is given as 30 mcg/cm^2 /hr in data set [6] (vinyl acetate content 9%), 60 mcg/cm^2 /hr in data set [6] (vinyl acetate content 18%), 66 mcg/cm^2 /hr in data set [6] (vinyl acetate content 28%) and 120 mcg/cm^2 /hr in data set [6] (vinyl acetate content 40%). In addition, the “Relation of nitroglycerin flux versus ethanol flux through skin and membrane adhesive laminates” value in data set [7] is listed as “The nitroglycerin follows the ethanol through skin”.
As for `O=C(O)c1ccccc1O` [salicylic acid], the “Flux of salicylic acid through human skin, neat versus aqueous ethanol” value in data set [8] is “neat ethanol increases skin permeation better than aqueous ethanol”.
As to `O` [water], in data set [9], the “Water permeability of rate-limiting membrane” value is given as “relatively impermeable to water”.
As to `C#C[C@]1(O)CC[C@H]2[C@@H]3CCC4=CC(=O)CC[C@@H]4[C@H]3CC[C@@]21CC` [levonorgestrel], the “Flux of levonorgestrel through rat skin, neat versus aqueous ethanol” value in [10] is listed as “neat ethanol increases skin permeation better than aqueous ethanol”.
`[3H]O[3H]` [^3 H2 O, tritiated water]: the “Tritiated water flux through combined membrane adhesive laminate” value in [11] is listed as “smaller than the range disclosed by this invention”. For the same molecule, in data set [5] (until reservoir composition of ethanol and water is delivered to skin surface), the “Dependence of permeation on vinyl acetate content” value is given as “increase with vinyl acetate content”. For the same molecule, the “^3 H2 O flux through ethylene vinyl acetate membrane” value in data set [5] (vinyl acetate content 9%) worked out at 0.5 mg/h; in data set [5] (vinyl acetate content 18%), 4 ± 0.3 mg/h; in data set [5] (vinyl acetate content 28%), 17 ± 3 mg/h; in data set [5] (vinyl acetate content 40%) it was 63 ± 9 mg/h.
With `C[C@]12CC[C@@H]3c4ccc(O)cc4CC[C@H]3[C@@H]1CC[C@@H]2O` [estradiol], the “Flux of estradiol through hairless mouse skin, neat versus aqueous ethanol” value in [12] is listed as “neat ethanol increases skin permeation better than aqueous ethanol”. The “Skin permeation of estradiol from neat ethanol versus aqueous ethanol donor solutions” value in [13] is “skin permeation from neat ethanol is as good or better than from aqueous ethanol donor solutions”.
In the case of `CCCN1CCC[C@@H]2c3cc(O)ccc3OC[C@H]21` (racemic) [(±)trans-1,3,4,4a,5,10b-hexahydro-4-propyl-2H-[1]benzopyrano[3,4-b]pyridin-9-ol], the “Optimal pH of ethanol:water donor for skin permeation” value in data set [14] is reported as about 4.
As for `CCO` [Ethanol, ethanol], in [5], the “Dependence of permeation on vinyl acetate content” value is recorded as “increase with vinyl acetate content”. Also, the “Volume fraction of ethanol at which ethanol flux through skin is optimized” value in data set [15] is recorded as 0.4-0.85 volume fraction of ethanol. Besides, the “Ethanol permeability of rate-limiting membrane” value in data set [9] (neat ethanol gel reservoir) is recorded as about 400 mcg/cm^2 /hr.

The values are drawn from US5925372A, “Mixed solvent mutually enhanced transdermal therapeutic system” (Novartis Corporation, priority 1991, dated 1999).
